Assays:
Type in all cases: cell-based
human PPARα = target: T1, human PPARα (Homo sapiens, UniProt Q07869); experiment: Cell transactivation assay in transiently transfected Hepa1c1c7 cells, PPRE-Lac Z reporter; details: concentration of 10 μM
T1 construct: expressed in transfected cells; host or cells: Hepa1c1c7 cells (transient transfection, Superfect)
T1 sequence (Q07869 1-468): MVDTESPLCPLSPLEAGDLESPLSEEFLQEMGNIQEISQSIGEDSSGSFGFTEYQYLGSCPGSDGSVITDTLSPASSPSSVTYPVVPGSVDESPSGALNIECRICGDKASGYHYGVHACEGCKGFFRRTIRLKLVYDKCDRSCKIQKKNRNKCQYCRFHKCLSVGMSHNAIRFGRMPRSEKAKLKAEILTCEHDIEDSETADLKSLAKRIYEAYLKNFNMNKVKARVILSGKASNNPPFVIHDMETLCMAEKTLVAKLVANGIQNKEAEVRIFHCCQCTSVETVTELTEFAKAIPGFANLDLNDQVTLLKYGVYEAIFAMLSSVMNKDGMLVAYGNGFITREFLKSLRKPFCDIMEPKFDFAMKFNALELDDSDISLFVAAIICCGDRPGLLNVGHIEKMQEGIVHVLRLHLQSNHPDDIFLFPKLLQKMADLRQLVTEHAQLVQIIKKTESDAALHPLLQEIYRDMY
Protocol: (§1) (B) Cell Transactivation Assays
(§2) Assays were performed by transient transfection of Hepa1c1c7 cells in which compounds of the invention were tested for their ability to activate human PPARα, δ and γ isoforms. Cells were co-transfected with either PPARa, d and g expression vectors (containing the entire ORF sequence) and a reporter construct carrying a PPRE linked Lac Z construct. Cells were transfected using Superfect and cultured in T75 flasks overnight, then plated into 96 well plates and left for 5 hours before the addition of test compound. After a further 24 hours PPAR activation was quantitated indirectly as β-Galactosidase activity by hydrolysis of chlorophenol red-β-D-galactopyranoside (CPRG), measured spectrophotometrically at 580 nm. Compounds of the invention were active in this assay.
(§3) According to their activity in transactivation assays and by comparison to the selective PPARγ agonist, BRL 49653; compounds of the invention were categorised as either having pharmacological properties consistent with: selective PPARγ agonists, partial agonists or non-selective PPAR α/γ agonists.

human PPARγ = target: T2, human PPARγ (Homo sapiens, UniProt P37231); experiment: as above; details: concentration of 10 μM
T2 construct: expressed in transfected cells; host or cells: Hepa1c1c7 cells (transient transfection, Superfect)
T2 sequence (P37231 1-505): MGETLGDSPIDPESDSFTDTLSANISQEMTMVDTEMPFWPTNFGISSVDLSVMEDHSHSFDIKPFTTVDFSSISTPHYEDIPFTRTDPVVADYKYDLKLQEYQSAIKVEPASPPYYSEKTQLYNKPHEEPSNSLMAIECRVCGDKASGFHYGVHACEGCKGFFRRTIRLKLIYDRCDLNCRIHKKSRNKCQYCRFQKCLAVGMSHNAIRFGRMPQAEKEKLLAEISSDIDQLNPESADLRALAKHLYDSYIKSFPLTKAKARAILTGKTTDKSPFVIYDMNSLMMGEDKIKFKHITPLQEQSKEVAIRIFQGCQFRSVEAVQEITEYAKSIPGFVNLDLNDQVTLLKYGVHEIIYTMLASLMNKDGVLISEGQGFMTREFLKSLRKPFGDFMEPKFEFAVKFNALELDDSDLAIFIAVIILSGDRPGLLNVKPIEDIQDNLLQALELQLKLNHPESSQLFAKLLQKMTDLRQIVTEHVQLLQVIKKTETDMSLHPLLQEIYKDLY
Protocol: as §1, §2, §3

3T3L1 preadipocytes = experiment: Adipocyte differentiation assay (glycerophosphate dehydrogenase activity); details: concentration of 10 μM, 3T3L1 cells, day 7; positive control BRL 49653
Protocol: Adipocyte Differentiation Assay
3T3L1 preadipocytes were grown in DMEM containing 10% NBCS and 1 day post-confluence cells were cultured in differentiation medium (DMEM containing 5% FCS, 1 μg/ml insulin, 0.25 μM dexamethasone and 0.5 mM IBMX) in the presence or absence of compounds. BRL 49653 was used as the positive control and the medium replenished after 3 days. On day 7, cells were lysed and glycerophosphate dehydrogenase activity measured spectrophotometrically at 340 nm.

**Q.** Which α transactivation (human PPARα) does the source give for COc1cc(-c2nnn(Cc3ccccc3C(=O)O)n2)ccc1CN(C)C(=O)COc1ccc(Cl)cc1 [Compound 46] here?
**A.** The α transactivation was 25%.

**Q.** And the γ transactivation (human PPARγ)?
**A.** The γ transactivation was 64%.

**Q.** What about the “activity as compared to the control (glycerophosphate dehydrogenase activity)” value (3T3L1 preadipocytes) of the same molecule?
**A.** Its value is 79%.

— US6787556B1, “Benzoic acid derivatives for the treatment of diabetes mellitus” (AstraZeneca AB, priority 1999, dated 2004)
